# From publication PMC3088504 (Bioorganic & medicinal chemistry, 2009)
# Molecular target: H1 receptor (Homo sapiens, UniProt P35367)
# Assay: H1 competitive radioligand binding assay
# Details: H1 versus 5-HT2A, from Ki values
# Sequence of H1 receptor (P35367 whole entry): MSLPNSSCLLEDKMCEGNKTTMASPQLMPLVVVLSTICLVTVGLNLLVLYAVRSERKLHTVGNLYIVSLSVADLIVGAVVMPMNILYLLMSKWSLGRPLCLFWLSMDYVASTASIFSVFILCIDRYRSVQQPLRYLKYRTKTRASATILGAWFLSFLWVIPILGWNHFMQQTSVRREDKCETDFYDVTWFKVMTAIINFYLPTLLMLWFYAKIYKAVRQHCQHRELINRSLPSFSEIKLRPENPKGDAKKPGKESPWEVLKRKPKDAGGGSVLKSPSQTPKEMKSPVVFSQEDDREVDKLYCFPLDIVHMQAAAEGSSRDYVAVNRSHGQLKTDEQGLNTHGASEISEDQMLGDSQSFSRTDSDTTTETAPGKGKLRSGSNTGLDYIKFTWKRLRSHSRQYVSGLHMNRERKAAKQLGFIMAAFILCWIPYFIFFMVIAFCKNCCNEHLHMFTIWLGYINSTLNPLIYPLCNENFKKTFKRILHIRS
compound,measurement,value
CN(C)CCCC1c2ccccc2Cc2ccccc21 [Compound 3c],selectivity for the H1 receptor,44 fold
